Experimental data taken from US8383554B2, “Quantitative microarray of intact glycolipid CD1d interaction and correlation with cell-based cytokine production” (Academia Sinica, priority 2008, dated 2013).
“Also recorded” adds a separate entry of the source. Where two headings read alike, the source gives them in different places.

Experiments:
[1] = target: T1, mCD1d:Ig fusion protein (CD1d) (Mus musculus, UniProt P11609); test: Competitive binding assay on microarray (Ki in solution); settings: for binding to CD1d in competition assay (in words): relative to α-GalCer or parent compound; for Ki: competition against surface compound 1, CD1d ~100-200 nM
T1 construct: purchased BD Bioscience
T1 sequence (P11609 22-305 limits assumed): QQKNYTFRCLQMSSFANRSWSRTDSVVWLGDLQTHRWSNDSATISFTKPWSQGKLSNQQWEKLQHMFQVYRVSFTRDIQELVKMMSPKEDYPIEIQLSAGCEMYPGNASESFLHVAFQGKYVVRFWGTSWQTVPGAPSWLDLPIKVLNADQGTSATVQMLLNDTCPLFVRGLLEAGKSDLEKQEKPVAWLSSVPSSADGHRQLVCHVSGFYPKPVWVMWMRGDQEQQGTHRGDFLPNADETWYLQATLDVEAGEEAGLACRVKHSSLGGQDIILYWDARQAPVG
T1 sequence (P01887 21-119 partner): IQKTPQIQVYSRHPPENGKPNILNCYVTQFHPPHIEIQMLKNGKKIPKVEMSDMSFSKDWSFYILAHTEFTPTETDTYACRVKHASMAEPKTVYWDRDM
From the text: Determination of Ki. The solution equilibrium dissociation constant (Ki) for glycolipid-CD1d interactions can be determined using microarrays in a competitive assay. The equation that describes the binding of the two ligands to the same site on the protein is identical to that for the competitive inhibition of an enzyme-catalyzed reaction. It is possible to take advantage of the convenience of IC50 measurements and still report inhibitory potency in terms of true Ki values. The final forms of the relationship can be expressed as
In this assay, the concentration of the protein is kept constant at or near the KD, surf (˜100-200 nM of CD1d). The glass slide is incubated with solutions containing varying concentrations of the glycolipid (covering about two orders of magnitude) and the protein.
Microarray Fabrication. Microarrays were printed (Genomic Solutions, Gene Machine) by robotic pin (SMP2B, TeleChem International Inc.). Approximately […] of various concentrations of amine-containing compounds 1-4 in DMSO were deposited onto slides from a 384 well plate. The slide for: (1) the scope of printing concentration studies: NHS-coated glass slides were printed with compounds 1-4 at 20 different concentrations (1000, 800, 600, 400, 200, 100, 80, 60, 40, 20, 10, 8, 6, 4, 2, 1, 0.8, 0.6, 0.4, 0.2 μM) from right to left with 10 replicates vertically placed in each sub-array. Six identical sub-arrays were fabricated in a 1×6 pattern and each sub-array consisted of a 20×10 pattern of spots, with a 0.3 mm pitch. After 2 h, the surface of the slide was divided by permanent marker to avoid contamination for later protein incubation; (2) the slide for FIG. 2 was printed with compound 1 with concentrations of 1000 (left most column), 900, 800, 700, 600, 500, 400, 300, 200, 100, 80, 60, 40, 20, 10, 5 μM (right-most column, 16 different conc.) with 16 replicates vertically placed in each grid, and totally 16 replicate (8×2 pattern) sub-arrays in one slide; (3) the slides for Ki determinations: the slides were printed of compound 1 with concentration of 1000, 900, 800 μM from right to left 81 replicates placed in each grid (9×9 pattern) and totally 44 sub-arrays replicates (4×11 pattern, each subarray is approximately 5 mm (width)×6 mm (length) area) in one slide. After 24 hours reaction, the slides were washed with PBST buffer (0.05% Tween 20) for 30 min and then blocked with blocking solution (super-block blocking buffer in PBS, Pierce) for another 1 h. The slides were dried under a flow of argon gas and stored at room temperature in a desiccator. The slides were washed with PBS buffer (pH 7.4) before use.
Competitive Binding Assay. Solutions of the competitors at different concentration (400 to 0.1 μM) were prepared and 5 μl aliquots incubated with protein (5 μl, 100˜250 nM). The mixture was then placed in a 384 well microtiter plate, covered, and left for five to eight hours. An aliquot of this solution (8 μL) was loaded onto the slides and incubated for 1 hour under a humidifying container at room temperature. The following procedure is the same as above the direct binding assay in washing procedure and applying secondary antibody. To get the data, Each inhibitor was assayed under this system at least three times and average Ki values are reported.
Data analysis. Extraction of spot intensity data was performed using ArrayVision 8.0 (Applied Precision). The background, calculated as the median of pixel intensities from the local area around each spot, was subtracted from the mean pixel intensity within each spot. To graphically represent the data, the values of the background-subtracted signal intensities were plotted against the known concentration of the protein spotted in the array, using the commercial non-linear regression program GraphPad PRISM 4 (GraphPad, San Diego). The values obtained from the competition assay were plotted against the known concentrations of the competitors applied on the slide. […]

CD1d [2] = settings: read-out: dissociation constant from IEF; cited from earlier work
CD1d [3] = settings: read-out: dissociation constant from ITC; cited from earlier work
[4] = Water solubility of glycolipids; format: physicochemical
[5] = test system: human Vα24+ NKT cell line co-cultured with Hela cells transfected with human CD1d; test: Cytokine secretion assay using human NKT cell lines, IFN-γ by ELISA; format: cell-based; settings: 10 ng/ml glycolipid, 24 hours; for IFN-γ secretion (in words): relative to α-GalCer
Procedure: Generation of Vα24+ human NKT cell lines. Human NKT cell lines, expressing the Vα24+ T cell receptor (TCR), were generated as follows: Vα24+ T cells and CD14+ cells were isolated from leukopaks using magnetic beads (Miltenyi biotec, Auburn, Calif.) coupled to an anti-Vα24+ TCR monoclonal antibody and an anti-CD14 monoclonal antibody, respectively. Immature dendritic cells were generated from the CD14+ cells after a three-day incubation in the presence of 300 U/ml GM-CSF (R&D systems, Minneapolis, Minn.) and 100 U/ml IL-4 (R&D systems, Minneapolis, Minn.). Following irradiation with 3000 rads, the immature dendritic cells were co-cultured with syngeneic Vα24+ T cells in the presence of 100 ng/ml of α-galactosylceramide and 10 IU/ml of IL-2 (R&D systems, Minneapolis, Minn.) for 10 days.
Cytokine Secretion Assay using human NKT cell lines. Twenty-thousand cells of a human NKT cell line and 2×10^4 Hela cells transfected with human CD1d that had been irradiated for 10,000 rads, were co-cultured in the presence of 10 ng/ml of each glycolipid in a 96-well plate. After culture for 24 hours, the concentration of IFN-γ or IL-4 in the culture supernatants was determined by ELISA (BD Pharmingen, San Diego, Calif.).

| SMILES | binding to CD1d in competition assay (in words) [1] | selectivity IFN-γ vs IL-4 (in words) [5] | IFN-γ secretion (in words) [5] | also measured |
| --- | --- | --- | --- | --- |
| CCCCCCCCCCCCCC[C@@H](O)[C@@H](O)[C@H](CO[C@H]1O[C@H](CO)[C@H](O)[C@H](O)[C@H]1O)NC(=O)CCCCCCCCCCc1ccccc1 [Compound 16] | about one order of magnitude stronger with CD1d than α-GalCer | – | – | – |
| CCCCCCCCCCCCCCCCCCCCCCCCCC(=O)N[C@@H](CO[C@H]1O[C@H](CO)[C@H](O)[C@H](O)[C@H]1O)[C@H](O)[C@H](O)CCCCCCCCCCCCCC [α-GalCer, α-galactosyl ceramide] | – | – | – | Kd (CD1d [2]): 5.9 µM; Kd (CD1d [3]): 9.7 µM; solubility in aqueous solution (in words) [4]: low solubility; Ki [1]: 14 µM |
| CCCCCCCCCCCCCC[C@@H](O)[C@@H](O)[C@H](CO[C@H]1O[C@H](CO)[C@H](O)[C@H](O)[C@H]1O)NC(=O)CCCCCCCc1ccc(F)cc1 [Compound 18] | bind most strongly to CD1d; also recorded: enhance the binding by approximately one order of magnitude, compared with parent compound 13 | more than three times more selective for IFN-γ release | induce the most IFN-γ secretions; also recorded: highest IFN-γ cytokine production, more than double that of the α-GalCer induced IFN-γ secretion | Ki [1]: 0.14 µM; binding to CD1d in competition assay (in words) ([1]; listed as para-fluoroheptaphenyl-modified α-GalCer): two orders of magnitude stronger than α-GalCer |
| CCCCCCCCCCCCCC[C@@H](O)[C@@H](O)[C@H](CO[C@H]1O[C@H](CO)[C@H](O)[C@H](O)[C@H]1O)NC(=O)CCCCCCc1ccccc1 [Compound 12] | about one order of magnitude stronger with CD1d than α-GalCer | – | – | – |
| CCCCCCCCCCCCCCCCCCCCCCCCCC(=O)N[C@@H](CO[C@H]1O[C@H](CO)[C@H](O)[C@H](O)[C@H]1O)[C@H](O)[C@H](O)CCc1ccccc1 [Compound 26] | weaker agonist of mCD1d | – | – | – |
| CCCCCCCCCCCCCC[C@@H](O)[C@@H](O)[C@H](CO[C@H]1O[C@H](CO)[C@H](O)[C@H](O)[C@H]1O)NC(=O)CCCCCCCCCCc1ccc(-c2ccccc2)cc1 [Compound 25] | lower binding activity | – | – | – |
| CCCCCCCCCCCCCC[C@@H](O)[C@@H](O)[C@H](CO[C@H]1O[C@H](CO)[C@H](O)[C@H](O)[C@H]1O)NC(=O)CCCCCCCc1ccccc1 [Compound 13] | about one order of magnitude stronger with CD1d than α-GalCer | – | peak IFN-γ secretions among the spacer chain elongation in acyl modification (11-17) | – |
| CCCCCCCCCCCCCC[C@@H](O)[C@@H](O)[C@H](CO[C@H]1O[C@H](CO)[C@H](O)[C@H](O)[C@H]1O)NC(=O)CCCCCCCCCCCCCCc1ccccc1 [Compound 17] | weaker affinities to CD1d | low selectivity between IFN-γ and IL-4 | less IFN-γ production | – |
| CCCCCCCCCCCCCC[C@@H](O)[C@@H](O)[C@H](CO[C@H]1O[C@H](CO)[C@H](O)[C@H](O)[C@H]1O)NC(=O)CCCCCCCc1ccc(OC)cc1 [Compound 19] | – | – | highest IFN-γ cytokine production, more than double that of the α-GalCer induced IFN-γ secretion | – |
| CCCCCCCCCCCCCC[C@@H](O)[C@@H](O)[C@H](CO[C@H]1O[C@H](CO)[C@H](O)[C@H](O)[C@H]1O)NC(=O)CCCCCCCc1ccc(-c2ccccc2)cc1 [Compound 21] | lower binding activity; also recorded: weaker affinities to CD1d | low selectivity between IFN-γ and IL-4 | less IFN-γ production | – |
